Test results published in patent US11478526B2, “Methods of reducing neuroinflammation or toxicity induced by amyloid beta (abeta) using glucocorticoid induced leucine zipper (GILZ) analog peptides” (INDIANA UNIVERSITY RESEARCH AND TECHNOLOGY CORPORATION, priority 2016, dated 2022).

Assays:
[1] = system: LPS induced neuroinflammation; assay: LPS induced neuroinflammation: real time PCR of brain tissue; format: in vivo, mouse; conditions: 25 mg/kg i.v. alternate days, day 7
Method: Animals and lipopolysaccharide induced neuroinflammation: Male C57/6J mice weighing 32 to 37 grams were housed five per cage at a temperature of 22±2° C. with 12 hour light/12 hour dark cycles with free access to laboratory food and water. Lipopolysaccharides (LPS) from Escherichia coli 026:B6, =10,000 EU/mg, purified by phenol extraction was purchased from Sigma (Sigma Aldrich, Mo., USA). The mice were randomly divided into seven groups: LPS, LPS+GA-1 or GA-2 or CP-1 or CP-2 or CP-3 or TAT. The LPS was administered intraperitoneally at […] in 100 μl of sterile saline followed by corn oil in the morning daily for six days. The GA or CP was administered intravenously at 25 mg/kg in 100 μl of sterile saline on alternate days. Additional control group included mice receiving saline alone. All animals were sacrificed on day 7.
Real time polymerase chain reaction. Total cellular RNA was isolated from each brain tissue using Qiagen kit (Invitrogen, Carlsbad, Calif.) following manufacturer's protocol and reverse transcribed using iScript cDNA synthesis kit (Biorad, Calif.). Equal amount of cDNA measured by the Nanodrop (ThermoFisher Scientific, Waltham, USA) was used for amplification of IL-1β, IL-12, CD14, BclXL and Bcl2. Real time PCR was performed using SYBR green/ROX qPCR master mix (SA Biosciences, Frederick, Md.) on the ABI Prism 7000 sequence detection system (Applied Biosystem, Foster City, Calif., USA). Each reaction contains 2×12.5 μl of master mix, 1 μl of 10 μM of primers and 50 ng of the cDNA, to a total volume of 25 μl. The thermal cycling conditions included an initial denaturation step at 50° C. for 2 min, 95° C. for 3 min, 39 cycles at 95° C. for 30 s, annealing temperature at 62° C. for 30 s and extension at 72° C. for 30 s.
The gene specific threshold cycle (Ct) for each sample (ΔCt) was corrected by subtracting the Ct for the housekeeping gene β-actin. Untreated controls were chosen as the reference samples. The ΔCt for all experimental samples was subtracted by the ΔCt for the control samples (ΔΔCt).The difference in each gene specific threshold between the sample from vehicle treated and GA or CP treated cells was determined to obtain the relative change in the specific mRNA. The magnitude of change in the mRNA was expressed as 2^−ΔΔCt. Each measurement of a sample was performed in duplicates.

[2] = system: primary human fetal brain cells (HFB); assay: CTG viability of primary human fetal brain cultures with or without Aβ1-42; format: cell-based; conditions: for viability of Aβ1-42 exposed HFB cells: Aβ1-42 10 μM
Method: Functional assays in human primary mixed brain cultures (HFB). Primary cultures of mixed HFB were prepared from the brain parenchyma of aborted fetuses (80-100 days gestational age). The tissues were obtained from the Birth Defects Research Laboratory (BDRL) at the University of Washington, Seattle with approval from the Indiana University Institutional Review Board (IRB). The IRB determined that the use of anonymous human biological materials received from this depository is not considered as human subjects research (supplementary document, s1). The NIH funded BDRL tissue distribution program operates separately in full compliance with all relevant state and federal laws and regulations with donors providing written informed consent.
Fetal brain materials (10-20 g) were shipped overnight in chilled Hibernate-E medium (Invitrogen) supplemented with B27 (Invitrogen), GlutaMAX (Invitrogen) and antibiotic-antimycotic solution (Cellgro). HFB were prepared and cultured as described. Briefly, cells were cultured in Neurobasal medium (Invitrogen) without phenol red supplemented with 1×B27, […] GlutaMAX, 1×antibiotic cocktail, 5 ng/mL recombinant fibroblast growth factor 2 (bFGF) (Invitrogen), and 2 μL/mL Normocin (InVivoGen, San Diego, Calif., USA). Cells were counted and seeded onto poly-D-lysine (Sigma-Aldrich) coated 24-well plates (Corning, Lowell, Mass., USA) at 1.5×10^5 cells per well and maintained at 37° C. in a 5% CO2 incubator. Half media changes were performed every 4th day of culture and morphology was monitored via phase contrast microscopy. Culture medium was removed from cells on day 17 (DIV17) and replaced with Neurobasal medium with B27. […] Cells and conditioned media were harvested and stored for further analysis. Relative ATP concentration was measured using the CTG kit (Promega). Data is presented as ΔRLU=RLU of Aβ1-42 exposed cells-RLU unexposed cells. Conditioned media collected were assessed for specific cytokines using the OptEIA kits (BD Biosciences). Nuclear and cytoplasmic fractions were extracted using the CelLytic™ NuCLEAR™ Extraction Kit (Sigma) following manufacturer's protocol. Five microgram of nuclear extracts was incubated in a 96-well plate coated with oligonucleotides containing the NF-κβ consensus nucleotide sequence (5′-[…]-3′) (SEQ ID NO: 30). The activated NF-κβ bound to DNA was detected by anti-p65 antibody followed by a peroxidase coupled secondary antibody and substrate using the TransAM kit protocol (Active Motif). Nuclear extracts of Raji cells was used as the positive control.
Select PGA protects against Aβ1-42 induced toxicity, prevents p65 activation and cytokine response in human fetal brain (HFB) cells. […] Viability in terms of relative luminescent Units (RLU) was quantified using a Glowmax luminometer (Promega, Wis.). Data are presented as ARLU=RLU of Aβ1-42 exposed cells-RLU of unexposed cells. […] The mean RLU of vehicle treated HFB varied between 7352.75+/−1265.2 and 16157.5+/−4950. Average RLU of cultures exposed to Aβ1-42 varied between 6067.25+/−903.05 and 11574.25+/−4139.3 in different experiments. […] The culture supernatants were assessed for cytokines by ELISA (R&D Systems, Minn.). […] Primary HFB cultured similarly and harvested at the end of 4 hours was assessed for nuclear p65 using TransAM kit for NF-κB p65 (Active Motif, Calif.).

[3] = LD50 predicted from in-vitro IC50 by regression (Speilmann method); conditions: for LD50 estimated from IC50: Log (LD50)=0.506×(log IC50)+0.475, body weight; for LD50 (mM): score 1/0
Method: Lactate dehydrogenase (LDH) assay: To detect direct GA-induced cell lysis we performed LDH release assays (Roche Molecular Diagnostics). […] Approximately 5×10^4 U373 cells/well were cultured in 96-well plates in the presence of increasing concentrations of individual GA or control peptide from 0.5 μM to 500 μM. Cells treated with 2% triton-X 100 (Sigma Aldrich, St. Louis, Mo.) for 10 minutes served as positive control. Untreated cells served as controls for spontaneous LDH-release. Specific LDH-release was calculated according to the following formula: LDH-release %=100*(GA or control peptide treated cells—untreated cells)/(positive control-untreated cells). The IC50 values were extrapolated by logarithmic estimation. The LD50 in mg/kg was predicted using the formula, Log (LD50)=0.506×(log IC50)+0.475. […]

[4] = system: differentiated SK-N-SH neuroblastoma cells; assay: Cellular morphology and CTG viability in differentiated neuroblasts; conditions: 50 μM or 500 μM, 24 hours; for cell morphology: phase contrast
Method: Cell Titer-Glo (CTG) luminescent cell viability assay: Human neuroblastoma (SK-N-SH) cells cultured in minimal essential medium (MEM) supplemented with 1% fetal bovine serum (FBS) and 1% penicillin (100 U/ml)/streptomycin (100 μg/ml) were differentiated with 10 μM all-trans retinoic acid for 7 days. After resting for 24 hours in the low serum medium, the cells were seeded in 24 well (10^5 cells/well) culture plates in fresh medium and incubated with 50 μM or 500 μM of individual GA or control peptide for additional 24 hours. The cultures were then photographed using a phase contrast Leica microscope (Leica Microsystems Inc, Buffalogrove, Ill.). Subsequently, the cells were harvested, lysed with lysis buffer (M-PER, Pierce) and the lysate was assessed for metabolic activity using the luciferase based CTG assay (CTG, Promega, Madison, Wis.). Briefly, cell lysate (5 μL) in 25 μL of phosphate buffered saline was transferred to an opaque white 96-well plate, and then 30 μL of CTG assay solution was added. The relative luminescent signal (RLT) was quantified using a Glowmax luminometer (Promega).

[5] = system: U373 cells; format: cell-based, human; conditions: Example 9, PGA synthesized with TAT; read-out: IC50 of LDH release extrapolated from regression analysis
Method: Lactate dehydrogenase (LDH) assay: To detect direct GA-induced cell lysis we performed LDH release assays (Roche Molecular Diagnostics). […] Approximately 5×10^4 U373 cells/well were cultured in 96-well plates in the presence of increasing concentrations of individual GA or control peptide from 0.5 μM to 500 μM. Cells treated with 2% triton-X 100 (Sigma Aldrich, St. Louis, Mo.) for 10 minutes served as positive control. Untreated cells served as controls for spontaneous LDH-release. Specific LDH-release was calculated according to the following formula: LDH-release %=100*(GA or control peptide treated cells—untreated cells)/(positive control-untreated cells). The IC50 values were extrapolated by logarithmic estimation. The LD50 in mg/kg was predicted using the formula, Log (LD50)=0.506×(log IC50)+0.475.
Effects of PGA on membrane integrity and apoptosis: The top five PGA were covalently synthesized with the cell penetrating TAT (transcriptional transactivation) peptide to facilitate intracellular delivery (Genescript, N.J.). Membrane integrity of U373 microglial cells exposed to increasing concentration of each PGA from 0.5 μm to 500 μM was assessed by the leakage of intracellular lactate dehydrogenase (LDH) into culture medium (Roche, Ind.).

[6] = system: Aβ1-42 exposed HFB cells; assay: Cytokines in culture medium of Aβ1-42 exposed HFB; format: cell-based, human; conditions: PGA at IC50 concentration
[7] = system: U373 cells; assay: Annexin-V and propidium iodide apoptosis by flow cytometry; format: cell-based, human; conditions: score 1/0
Method: Detection apoptosis by flow cytometry: To further assess cell cytotoxicity, the apoptotic effects of individual GA or control peptide was evaluated by the Annexin-V and propidium iodide (PI) dual staining method (Annexin-V-Fluos staining kit, Roche Diagnostics, Mannheim, Germany). As opposed to apoptotic cells, necrotic cells with ruptured cell membrane take up PI, the DNA binding dye. Thus, cells which take up both fluorochromes are a mixture of apoptotic and necrotic cells, whereas cells that exclude PI but bind Annexin V are (early) apoptotic cells. U373 cells cultured with varying concentrations of individual GA or control peptide (0.5 μM to 50 μM) for 24 hours were centrifuged and suspended in 100 μl of Annexin V/PI labelling solution (20 μl each of Annexin-V-Fluos labelling reagent and PI in 1 ml of binding buffer) for 15 min at room temperature. After washing the cells were resuspended in PBS:1% paraformaldehyde and analyzed using a FACScan flow cytometer (BD Biosciences, San Jose, Calif.).

[8] = target: T1, Recombinant human p65 protein (r-p65) (Homo sapiens, UniProt Q04206); assay: Plate binding ELISA of GA/PGA with r-p65 (KD by method of Friguet)
T1 construct: purchased Ori-Gene Technologies Inc., Rockville, Md; TP320780
Method: We used similar method to determine direct binding kinetics of GA hexapeptides with human r-p65. […] Absorbance at 650 nm was measured with a mixing time of 30 s using BIORAD microplate reader. […] The dissociation constant of the interaction between the GA or the control peptide and r-p65 was determined by the method of Friguet et al., as described. A fraction of the bound r-p65 (x) and the ratio of bound r-p65 to the free GA or control peptide (y) was determined by the equations: x=(A0−A)/(A0), where A0 is the absorbance of r-p65anti-p65 complex in the absence of bound GA or control peptide and y=(A0−A)/(a0−i0)×(A0−A)/(A0), where a0 is the total concentration of GA or control peptide and i0 is the total concentration of r-p65.
Kinetics of PGA:-p65 interaction: The binding kinetics of top five PGA with full length human r-p65 was assessed as described. Plate bound GILZ-P or PGA at increasing concentrations was probed with r-p65-DDK (Ori-Gene Technologies Inc., Rockville, Md.) at constant concentration and detected with anti-DDK.

[9] = dissociation constant, KD, method of Friguet et al.

T1 sequence (Q04206 whole entry): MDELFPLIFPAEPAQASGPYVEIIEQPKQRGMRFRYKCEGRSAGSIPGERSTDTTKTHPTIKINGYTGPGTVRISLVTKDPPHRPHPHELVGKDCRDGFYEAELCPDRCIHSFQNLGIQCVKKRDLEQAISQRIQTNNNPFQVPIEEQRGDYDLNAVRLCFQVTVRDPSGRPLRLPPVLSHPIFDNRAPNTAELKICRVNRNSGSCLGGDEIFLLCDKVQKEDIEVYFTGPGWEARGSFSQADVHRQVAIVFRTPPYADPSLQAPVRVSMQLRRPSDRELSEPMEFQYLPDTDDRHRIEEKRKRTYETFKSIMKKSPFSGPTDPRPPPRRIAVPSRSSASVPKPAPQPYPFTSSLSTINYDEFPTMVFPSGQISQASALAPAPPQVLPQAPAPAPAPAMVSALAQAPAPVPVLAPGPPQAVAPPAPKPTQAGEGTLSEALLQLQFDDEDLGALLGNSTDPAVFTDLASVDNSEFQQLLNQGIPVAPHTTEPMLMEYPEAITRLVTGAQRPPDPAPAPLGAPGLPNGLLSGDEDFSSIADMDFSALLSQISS

Substance	relative expression of BCl2 in brain tissues [1]	relative expression of CD14 mRNA in brain tissues [1]	tolerance of HFB cultures (Δ-RLU, CTG) ([2]; 50 μM peptide)	LD50 estimated from IC50 [3] [mg/kg]	cellular metabolic activity / viability (CTG assay) [4]	cell morphology [4]	relative expression of BclXL in brain tissues [1]	viability of Aβ1-42 exposed HFB cells ([2]; 50 μM peptide, vs untreated Aβ1-42 exposed cultures)	IC50 [5] [µM]	tolerance of HFB cultures (ΔRLU, CTG) ([2]; PGA at IC50 concentration)	LD50 (mM) [3]	AIL-1p concentration in culture supernatant (not shown) [6]	AIL-6 concentration in culture supernatant [6]	% apoptosis at LD50 [7]	Kd ([8]; KD (uM), score 1/0) [µM]	Kd [8, 9] [µM]	viability of Aβ1-42 exposed HFB cells ([2]; PGA at IC50 concentration, 24 hours)
Ac-EPAPEQPDG-NH2 [CP-2]	0.45+/−0.9	2.4+/−2	significant toxicity	237.52	did not adversely affect the differentiated neuroblastoma cells	no apparent adverse effects on morphology	–	–	–	–	–	–	–	–	–	–	–
Ac-EPAPYQPEG-NH2 [CP-1]	0.36+/−0.8	1+/−0.3	–	272.78	did not adversely affect the differentiated neuroblastoma cells	no apparent adverse effects on morphology	0.06+/−0.08	not significant	–	–	–	–	–	–	–	–	–
Ac-EPAPEQPDG-NH2 [PGA-5]	–	–	–	–	–	–	–	–	2	significant toxicity	1 (>100)	significantly lower	significantly lower	0 (>25)	> 3	3.4	–
Ac-EPAPYQPEG-NH2 [PGA-3]	–	–	–	–	–	–	–	–	0.98	well tolerated	1 (>100)	–	–	1 (<25)	> 3	3.27	significantly higher
Ac-APKPYQPRG-NH2 [PGA-1]	–	–	–	–	–	–	–	–	2.27	significant toxicity	0 (<100)	–	–	0 (>25)	> 3	4.28	–
Ac-APKPYQPRG-NH2 [CP-3]	0.44+/−0.9	1.2+/−0.1	significant toxicity	237.62	reduced the viability of the cells at both concentrations tested	morphological changes consistent with cell death	0.13+/−0.1	–	–	–	–	–	–	–	–	–	–
